In US12239780B2, “Bi-dose nasal spray” (AKROSWISS AG, priority 2018, dated 2025):

How the values were obtained:
[1] = nasal administration, no first pass effect; cited from earlier work
[2] = Bioavailability and plasma concentration after midazolam from the bi-dose nasal spray
[3] = test system: claustrophobic patients; conditions: cited from earlier work
[4] = aqueous solution, depending on content of active agent; cited from earlier work

Cc1ncc2n1-c1ccc(Cl)cc1C(c1ccccc1F)=NC2 [midazolam, 8-chloro-6-(2-fluorophenyl)-1-methyl-4H-imidazole[1,5-a][1,4]-benzodiazepine]
bioavailability using a nasal spray [1]: about 80%
time after administration at which a significant plasma concentration is achieved ([2]; bi-dose nasal spray, intranasal): 2 min
bioavailability ([2]; human, plasma, inhaled or intranasal): > 83%
MRI examinations carried out successfully and without relevant side effects ([3]; 72 patients, oral 7.5 mg (TG1) or intranasal 1.0 to 2.0 mg (TG2)): 97%
MRI imaging quality, intranasal group TG2 compared to oral group TG1 ([3]; intranasal 1-2 mg versus oral 7.5 mg, p<0.001): significantly higher
anxiolytic effect of nasally administered versus orally administered form ([3]; intranasal 1-2 mg versus oral 7.5 mg): significantly superior
pH below which the solution of the active agent is stable (precipitates at higher pH) [4]: < 3.8 pH
